How the values were obtained:
Assay in all cases: Test G preemergence, mixtures of Cpd. No. 20 with (b15C1)
Type in all cases: in vivo
[1] = tested on: palmer amaranth (AMAPA; Amaranthus palmeri)
Excerpt: (§1) This test evaluated the effect of mixtures of Cpd. No. 20 with (b15C1) on several plant species. Seeds of plant species selected from corn (ZEAMD; Zea mays, cv. ‘Pioneer 1184’), soybean (GLXMA; Glycine max, cv. Pioneer 35T58), giant foxtail (SETFA; Setaria faberi), barnyardgrass (ECHCG; Echinochloa crus-galli), large crabgrass (DIGSA; Digitaria sanguinalis), palmer amaranth (AMAPA; Amaranthus palmeri), common waterhemp (AMATU; Amaranthus rudis), and common ragweed (AMBEL; Ambrosia artemisiifolia) were planted in pots containing Tama Silt Loam soil and treated preemergence with a directed soil spray using test chemicals formulated in a non-phytotoxic solvent mixture which included a surfactant.
(§2) Treated plants and untreated controls were maintained in a greenhouse for approximately 21 d, after which time all treated plants were compared to untreated controls and visually evaluated for injury. Plant response ratings, summarized in Table G, are based on a 0 to 100 scale where 0 is no effect and 100 is complete control. A dash (-) response means no test result. Test results are presented as a mean of 4 reps.

[2] = tested on: large crabgrass (DIGSA; Digitaria sanguinalis)
Excerpt: as §1, §2

[3] = tested on: soybean (GLXMA; Glycine max, cv. Pioneer 35T58)
Excerpt: as §1, §2

[4] = tested on: corn (ZEAMD; Zea mays, cv. ‘Pioneer 1184’)
Excerpt: as §1, §2

[5] = tested on: giant foxtail (SETFA; Setaria faberi)
Excerpt: as §1, §2

[6] = tested on: barnyardgrass (ECHCG; Echinochloa crus-galli)
Excerpt: as §1, §2

[7] = tested on: common waterhemp (AMATU; Amaranthus rudis)
Excerpt: as §1, §2

[8] = tested on: common ragweed (AMBEL; Ambrosia artemisiifolia)
Excerpt: as §1, §2

FC(F)c1cc(-c2c(Cl)cccc2Oc2ncc(Cl)cn2)on1 [(b15C1), 5-chloro-2-[3-chloro-2-[3-(difluoromethyl)-5-isoxazolyl]phenoxy]-pyrimidine, reference compound] was tested, and the “Plant response rating (0 to 100 scale)” value ([1]; (b15C1) 8 g a.i./ha alone) was 60, the “Plant response rating (0 to 100 scale)” value ([1]; (b15C1) 16 g a.i./ha alone) was 88 and the “Plant response rating (0 to 100 scale)” value ([1]; (b15C1) 31 g a.i./ha alone) was 97. For the same compound, the “Plant response rating (0 to 100 scale)” value ([2]; (b15C1) 8 g a.i./ha alone) was 54, the “Plant response rating (0 to 100 scale)” value ([2]; (b15C1) 16 g a.i./ha alone) was 90 and the “Plant response rating (0 to 100 scale)” value ([2]; (b15C1) 31 g a.i./ha alone) was 100. For the same compound, the “Plant response rating (0 to 100 scale)” value ([3]; (b15C1) 8 g a.i./ha alone) was 0, the “Plant response rating (0 to 100 scale)” value ([3]; (b15C1) 16 g a.i./ha alone) was 0 and the “Plant response rating (0 to 100 scale)” value ([3]; (b15C1) 31 g a.i./ha alone) was 0. For the same compound, the “Plant response rating (0 to 100 scale)” value ([4]; (b15C1) 8 g a.i./ha alone) was 0, the “Plant response rating (0 to 100 scale)” value ([4]; (b15C1) 16 g a.i./ha alone) was 0 and the “Plant response rating (0 to 100 scale)” value ([4]; (b15C1) 31 g a.i./ha alone) was 0. The “Plant response rating (0 to 100 scale)” value ([5]; (b15C1) 8 g a.i./ha alone) was 5, the “Plant response rating (0 to 100 scale)” value ([5]; (b15C1) 16 g a.i./ha alone) was 34 and the “Plant response rating (0 to 100 scale)” value ([5]; (b15C1) 31 g a.i./ha alone) was 74. For the same compound, the “Plant response rating (0 to 100 scale)” value ([6]; (b15C1) 8 g a.i./ha alone) was 0, the “Plant response rating (0 to 100 scale)” value ([6]; (b15C1) 16 g a.i./ha alone) was 0 and the “Plant response rating (0 to 100 scale)” value ([6]; (b15C1) 31 g a.i./ha alone) was 35. For the same compound, the “Plant response rating (0 to 100 scale)” value ([7]; (b15C1) 8 g a.i./ha alone) was 0, the “Plant response rating (0 to 100 scale)” value ([7]; (b15C1) 16 g a.i./ha alone) was 0 and the “Plant response rating (0 to 100 scale)” value ([7]; (b15C1) 31 g a.i./ha alone) was 20. The “Plant response rating (0 to 100 scale)” value ([8]; (b15C1) 8 g a.i./ha alone) was 54, the “Plant response rating (0 to 100 scale)” value ([8]; (b15C1) 16 g a.i./ha alone) was 90 and the “Plant response rating (0 to 100 scale)” value ([8]; (b15C1) 31 g a.i./ha alone) was 100.
